# Laboratory results published in patent US20260240962A1, “PHARMACEUTICAL COMPOSITION FOR TREATING AND/OR PREVENTING CANCER” (TORAY INDUSTRIES, INC., priority 2023, published 2026).
# How the values were obtained:
# [1] = tested on: CAPRIN-1 protein on the membrane surface of the cancer cells; assay: Flow cytometry of CAPRIN-1 protein on the membrane surface of HCT-116 treated with low molecular weight compounds; assay type: cell-based, human; conditions: 1 to 3 days, vs DMSO negative control
# Description: (§1) 2×10^5 cancer cells suspended in Dulbecco's PBS(−) containing 1% fetal bovine serum (hereinafter, 1% FCS-PBS(−)) were reacted with an antibody against CAPRIN-1 at a concentration of 1 to 10 μg/mL, and then allowed to react on ice (or at 4° C.) for 1 hour.
# After the antibody reaction, cells were washed with 1% FCS-PBS (−) and then reacted with a fluorescently labeled anti-IgG secondary antibodies (FITC Goat anti-rabbit IgG (BD Biosciences, 554020), Alexa Fluor 488 anti-rabbit IgG (H+L) (Invitrogen, A21206), Alexa Fluor 647 anti-rabbit IgG (BioLegend, 406414). Alexa Fluor 488 F(ab′)2 anti-mouse IgG (H+L) (Invitrogen, A11017) or Alexa Fluor 488 anti-human IgG (H+L) (Invitrogen, A11013) at a concentration of 1 to 10 μg/mL for reaction with an antibody against CAPRIN-1, followed by 1 hour of reaction on ice (or at 4° C.). After reaction with the fluorescently labeled secondar antibodies, cells were washed with 1% FCS-PBS(−) and then reacted with a PI (propidium iodide) solution (DOJINDO, 341-07881) or Fixable Viability Stain 450 (BD Horizon) prepared at a concentration of 0.1 μg/mL for 15 minutes. Cells were then washed with 1% FCS-PBS(−) and then the scattered light intensity and fluorescence intensity were measured using a flow cytometer according to a standard method.
# HCT-116 = assay: Antitumor effect in HCT-116 cancer-bearing nude mice; assay type: in vivo; conditions: HCT-116 subcutaneous in nude mice; 10 mg/kg twice a week into the tail vein
# Description: The antitumor effect of Dorsomorphin, which was an AMPK inhibitor, confirmed in Example 9 to have the effect of reducing the expression of the CAPRIN-1 protein on the membrane surface of the cancer cells, was confirmed. HCT-116, which were the cancer cells confirmed to express the CAPRIN-1 protein on the cell membrane surface were cultured in a normal culture flask using a complete medium containing 10% fetal bovine serum according to a standard method, and then mixed with RPMI-1640 medium containing 20% Matrigel Basement Membrane Matrix (Corning, 354234), and 1 to 2×10^7 cancer cells per mouse were subcutaneously inoculated into nude mice under anesthesia. After the cancer cells were inoculated, the size of the cancer in each cancer-bearing mouse was measured over time using a vernier caliper, and the tumor volume was calculated for each individual mouse using the formula: (length of the long axis of the cancer)×(length of the short axis of the cancer) 2×0.5 according to a standard method, and the average value of the administration group was calculated. After the cancer cells were inoculated, Dorsomorphin was administered at 10 mg/kg twice a week into the tail vein of each cancer-bearing mouse whose tumor size reached 100 to 200 mm^3 or more. […]
# [2] = tested on: CAPRIN-1 protein on the cell membrane surface; assay: Flow cytometry of CAPRIN-1 protein on the cell membrane surface after trypsin treatment; assay type: cell-based, human; conditions: Trypsin/EDTA (0.05%) for 5 minutes, vs cells not treated
# Description: as §1, with “The expression of the CAPRIN-1 protein on the cell membrane surface of the cancer cells for which the expression of the CAPRIN-1 gene was confirmed in Example 1 was confirmed by flow cytometry. 2×10^5” for “2×10^5”, “hour. […]” for “hour.”
# SK-MEL-5 and OVCAR3, which were the cancer cells confirmed to express the CAPRIN-1 protein on the cell membrane surface in Example 3, were cultured in a normal culture flask using a complete medium containing 10% fetal bovine serum under an environment of 37° C. and 5% CO2. […] Portions of the collected cells were treated with a solution containing trypsin, which was a digestive enzyme, (Thermo, Trypsin/EDTA (0.05%)) for 5 minutes, and then the proportions of live cells and dead cells stained with trypan blue were measured and calculated using the trypan blue exclusion method according to a standard method, and then the cell density of live cells was calculated. […]
# OVCAR3 = assay: Soft agar colony formation assay (anchorage-independent colony-forming ability), OVCAR3; assay type: cell-based, human; conditions: OVCAR3 treated with trypsin vs not treated, 2 to 4 weeks
# Description: (§2) 10^4 cells of each of the above cells were suspended in DMEM medium gel containing 10% fetal bovine serum containing 0.4% soft agar (Difco, 214220), added to a Petri dish with a diameter of 35 mm, and then incubated under an environment of 37° C. and 5% CO2 for 2 to 4 weeks. After incubation, the number of colonies formed in the gel was counted.
# SK-MEL-5 = assay: Soft agar colony formation assay (anchorage-independent colony-forming ability), SK-MEL-5; assay type: cell-based, human; conditions: SK-MEL-5 treated with trypsin vs not treated, 2 to 4 weeks
# Description: as §2
# SK-MEL-5, winch were the cancer cells confirmed to express the CAPRIN-1 protein on the cell membrane surface in Example 3, was cultured in a normal culture flask using a complete medium containing 10% fetal bovine serum under an environment of 37° C. and 5% CO2. The cultured SK-MEL-5 was collected from the flask using a cell scraper. […] On the other hand, […], SK-MEL-5, […], was used to evaluate the anchorage-independent colony-forming ability by soft agar colony formation assay. 10^4 cells of each of the above cells were suspended in a DMEM medium gel containing 10% fetal bovine serum containing 0.4% soft agar (Difco, 214220), added to a Petri dish with a diameter of 35 mm, and then incubated under an environment of 37° C. and 5% CO2 for 2 to 4 weeks.
molecule,measurement,setting,value
CCN(CC)CCCC(C)Nc1nc(C)cc(Nc2ccc3nc(C)cc(N)c3c2)n1.Cl.Cl.Cl (racemic) [Rac1 inhibitor (CAS #1177865-17-6)],expression of the CAPRIN-1 protein on the membrane surface of the cancer cells,[1]; final concentration 250 nM,clearly reduced
c1cc(-c2cnn3cc(-c4ccc(OCCN5CCCCC5)cc4)cnc23)ccn1 [Dorsomorphin],"tumor size, when the tumor size of the untreated cancer-bearing mice was taken as 100%",HCT-116,≤ 70%
O=C(N/N=C/c1ccc(O)c(O)c1)c1cc2ccccc2cc1O [Dynasore],expression of the CAPRIN-1 protein on the membrane surface of the cancer cells,[1]; final concentration 100 μM,clearly reduced
COc1ccc(CNC(=O)Nc2ncc([N+](=O)[O-])s2)cc1 [GSK-3D inhibitor VIII],expression of the CAPRIN-1 protein on the membrane surface of the cancer cells,[1]; final concentration 10 μM,clearly reduced
FC(F)(F)c1ccc(/C=C/c2nc(COc3ccc(CCCCn4ccnn4)cc3)co2)cc1 [Mubritinib],expression of the CAPRIN-1 protein on the membrane surface of the cancer cells,[1]; final concentration 1 μM,clearly reduced
Cc1ccc(C(=O)Cn2c3c(sc2=N)CCCC3)cc1 [Pifithrin-α],expression of the CAPRIN-1 protein on the membrane surface of the cancer cells,[1]; final concentration 30 μM,clearly reduced
Cn1c2cccc(=O)c-2nc2ccccc21 [Pyocyanin],expression of the CAPRIN-1 protein on the membrane surface of the cancer cells,[1]; final concentration 20 μM,clearly reduced
COc1cccc(-c2cc(NCc3ccc4c(c3)OCO4)nc(N)n2)c1 [Wnt agonist 1],expression of the CAPRIN-1 protein on the membrane surface of the cancer cells,[1]; final concentration 20 μM,clearly reduced
Cc1cc(-c2ccc(CC(=O)Nc3ccc(-c4cccnc4)cc3)cc2)ccn1 [Wnt-C59],expression of the CAPRIN-1 protein on the membrane surface of the cancer cells,[1]; final concentration 5 μM,clearly reduced
"trypsin (protein, UniProt P00761 9-231, looked up, EDTA solution, hydrolytic / digestive enzyme; solution containing trypsin (Thermo, Trypsin/EDTA (0.05%))) Trypsin: IVGGYTCAANSIPYQVSLNSGSHFCGGSLINSQWVVSAAHCYKSRIQVRLGEHNIDVLEGNEQFINAAKIITHPNFNGNTLDNDIMLIKLSSPATLNSRVATVSLPRSCAAAGTECLISGWGNTKSSGSSYPSLLQCLKAPVLSDSSCKSSYPGQITGNMICVGFLEGGKDSCQGDSGGPVVCNGQLQGIVSWGYGCAQKNKPGVYTKVCNYVNWIQQTIAAN",expression of the CAPRIN-1 protein on the cell membrane surface,[2]; OVCAR3,reduced
same,expression of the CAPRIN-1 protein on the cell membrane surface,[2]; SK-MEL-5,reduced
same,number of colonies formed,OVCAR3,significantly lower
same,number of colonies formed,SK-MEL-5,significantly lower
